Measured values from article PMC9232612, “A phase 1b randomised controlled trial of a glucagon-like peptide-1 and glucagon receptor dual agonist IBI362 (LY3305677) in Chinese patients with type 2 diabetes” (Nature Communications, 2022).
Values joined by “and” are separate entries in the source; they are usually repeats but may differ in a detail not shown here. Equal values may be shown once.

How the values were obtained:
Assay type in all cases: in vivo, human
[1] = tested on: Chinese patients with T2D; experiment: Treatment-emergent adverse events (MedDRA SOC/preferred term), 12-week once-weekly s.c. treatment plus 8-week safety follow-up, phase 1b
Experimental: The study included a 3-week screening period, a 12-week treatment period and an 8-week safety follow-up period. During the 12-week treatment period, IBI362 or placebo was subcutaneously administered once weekly with one of the three dose-escalation schedules: 1.0–2.0–3.0 mg for the 3.0 mg cohort, 1.5–3.0–4.5 mg for the 4.5 mg cohort and 2.0–4.0–6.0 mg for the 6.0 mg cohort (each dose level administered for 4 weeks). The 6.0 mg cohort started dosing after tolerability evaluation of 1.5 mg dosing in the 4.5 mg cohort. The internal unblinded safety monitoring group was responsible for the safety monitoring. Dulaglutide was subcutaneously administered once weekly at a fixed dose of 1.5 mg. Patients who were on metformin prior to the enrolment of this trial were required to continue their previous dose of metformin throughout the trial. Investigators and authorized study personnel in each centre recorded the study data into the electronic case report forms (eCRFs), which were reviewed and validated by clinical research associates. The data in the eCRFs were submitted to the electronic data capture database.
Primary outcomes of the study were the safety and tolerability of IBI362. Safety assessment included adverse events, physical examinations, laboratory tests (including lipase, amylase and calcitonin level measures), vital signs and 12-lead electrocardiogram. Adverse events were categorized according to the Medical Dictionary for Regulatory Activities system organ classes (SOCs) and preferred terms. Treatment-emergent adverse events (TEAEs) were monitored from the time of informed consent to the safety follow-up period. The severity of TEAEs (mild, moderate or severe) and the association between an event and the study drug were assessed by investigators based on pre-specified criteria.
Safety analyses were done in the safety population (defined as all patients who received at least one dose of the study treatment). Pharmacokinetic analyses were done in the pharmacokinetic population (defined as all patients who received at least one dose of IBI362 and had at least one valid plasma concentration assessment).

[2] = tested on: Chinese patients with T2D; experiment: Mixed-meal tolerance test (MTT): insulin
Experimental: HbA1c (2200101, Bio-Rad, USA), blood glucose (05168791190, Roche Diagnostics, Germany), insulin (12017547122, Roche Diagnostics, Germany), C peptide (03184897190, Roche Diagnostics, Germany), total GLP-1 (GLP-1 [7–36] amide and its metabolite, GLP-1 [9–36] amide, 10-1278-01, Mercodia AB, Sweden) and OXM (AL-139, AnshLabs, USA) tests were performed according to the manufactures’ instruction manuals in a central laboratory (KingMed Diagnostics, Guangzhou, China). HbA1c was measured using a Bio-rad D-100 Haemoglobin Testing System (Bio-rad). Blood glucose was measured using a Roche Cobas c702 analyser (Roche Diagnostics). Insulin and C peptide were measured using a Roche […] analyser (Roche Diagnostics). GLP-1 and OXM were measured using a Tecan Infinite M Plex microplate reader (TECAN).
Standard non-compartmental pharmacokinetics methods were used to analyze IBI362 plasma concentration data using Pkanalix 2020R1 (Lixoft, Antony, France). Secondary efficacy outcomes included change from baseline to week 12 in HbA1c, fasting plasma glucose (FPG), fasting insulin levels, change from baseline to week 12 in post-mixed-meal tolerance test (post-MTT) glucose, insulin, C peptide, GLP-1 and OXM levels, as well as seven-point self-measured blood glucose (SMBG) profile. […]
3. Standard meal test (MTT) collection measures included: insulin, C-peptide, plasma glucose, glucagon, endogenous OXM, and endogenous GLP-1. The sampling points include: fasting, 30 min, 1h, 2h, 3h and 4h.
A total of 9 mL blood will be collected from each blood collection point. See the manual of the central laboratory for the detailed operation process. Fasting state refers to fasting for 10 hours. [ The standard meal is
instant noodles. The master Kang roast beef noodles (bucket noodles) purchased by the sponsor in a unified manner are removed from the oil bag. The noodles are soaked in boiled water and then removed. The seasoning
bag is added and mixed well. The time is counted from the first bite of eating. The noodles are eaten within 10 minutes, and 200 mL of water is drunk; or the instant noodles are directly opened with 200 mL of boiled
water to ensure that the noodles are eaten and the water or soup is drunk]. Visit days when MTT test is performed: 1 day prior to Cycle 1 administration, Day 80 (D80). […]
● Test by central laboratory

Waist circumference = conditions: for Change from baseline to week 12 in waist circumference, individual: single patients
Source text: (§1) Exploratory outcomes included change from baseline in body weight, waist circumference, body-mass index (BMI) and change in homeostatic model assessment of β-cell function (HOMA-β) and insulin resistance (HOMA-IR).

Body-mass index (BMI) = conditions: mean
Source text: as §1

[3] = tested on: Chinese patients with T2D; experiment: Lipids (total cholesterol, LDL cholesterol, triglycerides); conditions: mean
Experimental: Fig. S8: Change from baseline in lipids levels at week 12.
Data are plotted as means +/- SD. IBI362 3.0 mg n = 7; IBI362 4.5 mg n = 5; IBI362 6.0 mg n = 8; Pooled placebo n = 10; Dulaglutide n = 6. CFB = change from baseline; LDL = low density lipoprotein; SD = standard deviation. Source data are provided as a Source Data file.
Total cholesterol LDL cholesterol Triglycerides
CFB in lipids at week 12 (mmol/L),
(1 picture or pasted object on this page, not shown here) […]
Table 4 Routine laboratory safety assessments […]
Lipids Total cholesterol (TC), triglyceride (TG), high-density lipoprotein cholesterol (HDL-C), and low-density lipoprotein cholesterol (LDL-C). […]

CC(C)C[C@H](NC(=O)[C@H](CC(C)C)NC(=O)[C@H](Cc1c[nH]c2ccccc12)NC(=O)[C@H](CCC(=O)O)NC(=O)[C@@H](NC(=O)[C@H](Cc1ccccc1)NC(=O)[C@H](CCC(=O)O)NC(=O)[C@H](CCCCNC(=O)COCCOCCNC(=O)COCCOCCNC(=O)CC[C@H](NC(=O)CCCCCCCCCCCCCCCCCCC(=O)O)C(=O)O)NC(=O)[C@H](C)NC(=O)[C@H](CCCCN)NC(=O)[C@H](CCCCN)NC(=O)[C@H](CCC(=O)O)NC(=O)[C@H](CC(=O)O)NC(=O)[C@H](CC(C)C)NC(=O)[C@H](Cc1ccc(O)cc1)NC(=O)[C@H](CCCCN)NC(=O)[C@H](CO)NC(=O)[C@H](Cc1ccc(O)cc1)NC(=O)[C@H](CC(=O)O)NC(=O)[C@H](CO)NC(=O)[C@@H](NC(=O)[C@H](Cc1ccccc1)NC(=O)[C@@H](NC(=O)CNC(=O)[C@H](CCC(N)=O)NC(=O)C(C)(C)NC(=O)[C@@H](N)Cc1c[nH]cn1)[C@@H](C)O)[C@@H](C)O)C(C)C)C(=O)N[C@@H](CCC(=O)O)C(=O)NCC(=O)NCC(=O)N1CCC[C@H]1C(=O)N[C@@H](CO)C(=O)N[C@@H](CO)C(=O)NCC(N)=O [IBI362]
median time to resolution of gastrointestinal adverse events (diarrhoea, nausea and vomiting) ([1]; 4.5 mg group, 10 events): 3.5 days
median time to resolution of gastrointestinal adverse events (diarrhoea, nausea and vomiting) ([1]; 6.0 mg group, 11 events): 4 days
tolerability ([1]; 3.0, 4.5 and 6.0 mg dose-escalation regimens): well tolerated
Insulin during MTT, mean ([2]; week 12, 0 min, 3.0 mg cohort, n=7): 9.22 μU/mL
Insulin during MTT, mean ([2]; week 12, 0 min, 4.5 mg cohort, n=5): 13.41 μU/mL
Insulin during MTT, mean ([2]; week 12, 0 min, 6.0 mg cohort, n=8): 13.25 μU/mL
Insulin during MTT, mean ([2]; week 12, 30 min, 3.0 mg cohort, n=7): 17.47 μU/mL
Insulin during MTT, mean ([2]; week 12, 30 min, 4.5 mg cohort, n=5): 22.16 μU/mL
Insulin during MTT, mean ([2]; week 12, 30 min, 6.0 mg cohort, n=8): 22.08 μU/mL
Insulin during MTT, mean ([2]; week 12, 60 min, 3.0 mg cohort, n=7): 34.23 μU/mL
Insulin during MTT, mean ([2]; week 12, 60 min, 4.5 mg cohort, n=5): 41.02 μU/mL
Insulin during MTT, mean ([2]; week 12, 60 min, 6.0 mg cohort, n=8): 41.49 μU/mL
Insulin during MTT, mean ([2]; week 12, 120 min, 3.0 mg cohort, n=7): 57.20 μU/mL
Insulin during MTT, mean ([2]; week 12, 120 min, 4.5 mg cohort, n=5): 45.65 μU/mL
Insulin during MTT, mean ([2]; week 12, 120 min, 6.0 mg cohort, n=8): 64.69 μU/mL
Insulin during MTT, mean ([2]; week 12, 180 min, 3.0 mg cohort, n=7): 39.93 μU/mL
Insulin during MTT, mean ([2]; week 12, 180 min, 4.5 mg cohort, n=5): 50.30 μU/mL
Insulin during MTT, mean ([2]; week 12, 180 min, 6.0 mg cohort, n=8): 46.96 μU/mL
Insulin during MTT, mean ([2]; week 12, 240 min, 3.0 mg cohort, n=7): 23.01 μU/mL
Insulin during MTT, mean ([2]; week 12, 240 min, 4.5 mg cohort, n=5): 25.01 μU/mL
Insulin during MTT, mean ([2]; week 12, 240 min, 6.0 mg cohort, n=8): 24.25 μU/mL
Change from baseline to week 12 in waist circumference, mean (Waist circumference; 3.0 mg cohort, n=7): -0.5 cm
Change from baseline to week 12 in waist circumference, mean (Waist circumference; 4.5 mg cohort, n=5): -3.0 cm
Change from baseline to week 12 in waist circumference, individual (Waist circumference; 3.0 mg cohort, n=7): -4.4 cm and -0.2 cm and -4.0 cm and -1.0 cm and 3.7 cm and 3.5 cm
Change from baseline to week 12 in waist circumference, individual (Waist circumference; 4.5 mg cohort, n=5): -4.5 cm and -1.8 cm and -2.1 cm and -2.2 cm and -4.2 cm
Change from baseline to week 12 in waist circumference, individual (Waist circumference; 6.0 mg cohort, n=8): -4.7 cm and -2.5 cm and -1.0 cm and -7.5 cm and -5.1 cm and -13.3 cm and -1.5 cm and -2.9 cm
Change from baseline to week 12 in BMI (Body-mass index (BMI); IBI362 3.0 mg): -0.38 kg/m2
Change from baseline to week 12 in BMI (Body-mass index (BMI); IBI362 4.5 mg): -1.25 kg/m2
Change from baseline to week 12 in BMI (Body-mass index (BMI); IBI362 6.0 mg): -1.36 kg/m2
Change from baseline to week 12 in LDL cholesterol ([3]; IBI362 3.0 mg): -0.33 mmol/L
Change from baseline to week 12 in total cholesterol ([3]; IBI362 3.0 mg): -0.71 mmol/L
Change from baseline to week 12 in triglycerides ([3]; IBI362 3.0 mg): -0.83 mmol/L
Change from baseline to week 12 in LDL cholesterol ([3]; IBI362 4.5 mg): -1.15 mmol/L
Change from baseline to week 12 in total cholesterol ([3]; IBI362 4.5 mg): -1.68 mmol/L
Change from baseline to week 12 in triglycerides ([3]; IBI362 4.5 mg): -0.23 mmol/L
Change from baseline to week 12 in LDL cholesterol ([3]; IBI362 6.0 mg): -0.90 mmol/L
Change from baseline to week 12 in total cholesterol ([3]; IBI362 6.0 mg): -1.17 mmol/L
Change from baseline to week 12 in triglycerides ([3]; IBI362 6.0 mg): -0.66 mmol/L

Dulaglutide: open-label active reference, subcutaneously once weekly at a fixed dose of 1.5 mg [reference compound]
Infections and infestations (SOC) ([1]; 1.5 mg once weekly, n=6): 0 number of patients (%)
Upper respiratory tract infection ([1]; 1.5 mg once weekly, n=6): 0 number of patients (%)
Urinary tract infection ([1]; 1.5 mg once weekly, n=6): 0 number of patients (%)
Insulin during MTT, mean ([2]; week 12, 0 min, 1.5 mg once weekly, n=6): 13.40 μU/mL
Insulin during MTT, mean ([2]; week 12, 30 min, 1.5 mg once weekly, n=6): 30.21 μU/mL
Insulin during MTT, mean ([2]; week 12, 60 min, 1.5 mg once weekly, n=6): 53.77 μU/mL
Insulin during MTT, mean ([2]; week 12, 120 min, 1.5 mg once weekly, n=6): 63.25 μU/mL
Insulin during MTT, mean ([2]; week 12, 180 min, 1.5 mg once weekly, n=6): 30.85 μU/mL
Insulin during MTT, mean ([2]; week 12, 240 min, 1.5 mg once weekly, n=6): 21.56 μU/mL
Change from baseline to week 12 in waist circumference, mean (Waist circumference; 1.5 mg once weekly, n=6): -1.4 cm
Change from baseline to week 12 in waist circumference, individual (Waist circumference; 1.5 mg once weekly, n=6): -0.5 cm and -1.5 cm and -2.6 cm and -4.9 cm and 1.5 cm
Change from baseline to week 12 in BMI (Body-mass index (BMI); Dulaglutide group): -0.19 kg/m2
Change from baseline to week 12 in LDL cholesterol ([3]; Dulaglutide group): -0.32 mmol/L
Change from baseline to week 12 in total cholesterol ([3]; Dulaglutide group): -0.58 mmol/L
Change from baseline to week 12 in triglycerides ([3]; Dulaglutide group): -0.58 mmol/L
